Assay results from ChEMBL document CHEMBL5465560, “Selectivity Literature for EUbOPEN Chemogenomic Library” (2024).

Tests used:
[1] = Selectivity interaction (Rat whole blood B cell activation assay) EUB0000877a PIK3CD; type: tissue-based
[2] = target: Tyrosine-protein kinase Lyn (Homo sapiens, UniProt P07948); test: Selectivity interaction (Kinase panel (Invitrogen)) EUB0000639a LYN; details: at 200 nM
[3] = target: Tyrosine-protein kinase BTK (Homo sapiens, UniProt Q06187); test: Selectivity interaction (ActivX KiNativ screen (kinase selectivity in THP-1 cell lysates)) EUB0000639a BTK; type: subcellular; details: lysate, at 5 µM
Chain of Tyrosine-protein kinase BTK (Q06187 whole entry, canonical isoform): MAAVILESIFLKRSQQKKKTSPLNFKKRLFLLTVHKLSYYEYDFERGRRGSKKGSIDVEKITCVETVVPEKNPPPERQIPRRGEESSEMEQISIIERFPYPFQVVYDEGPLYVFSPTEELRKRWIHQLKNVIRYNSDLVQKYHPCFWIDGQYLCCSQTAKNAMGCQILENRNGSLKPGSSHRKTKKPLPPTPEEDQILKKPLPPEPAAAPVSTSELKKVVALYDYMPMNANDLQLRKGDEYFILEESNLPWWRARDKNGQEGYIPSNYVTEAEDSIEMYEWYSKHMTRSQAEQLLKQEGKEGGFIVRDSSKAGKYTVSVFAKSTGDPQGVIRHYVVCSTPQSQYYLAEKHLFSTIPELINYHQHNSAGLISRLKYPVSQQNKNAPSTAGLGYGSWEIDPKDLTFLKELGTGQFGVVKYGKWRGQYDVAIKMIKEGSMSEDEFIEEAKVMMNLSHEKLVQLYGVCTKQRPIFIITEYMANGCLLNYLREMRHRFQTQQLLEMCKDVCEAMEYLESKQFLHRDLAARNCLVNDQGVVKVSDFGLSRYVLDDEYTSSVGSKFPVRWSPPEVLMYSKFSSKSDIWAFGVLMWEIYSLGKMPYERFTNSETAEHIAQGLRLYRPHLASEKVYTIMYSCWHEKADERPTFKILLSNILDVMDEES

[4] = target: Casein kinase I isoform gamma-1 (Homo sapiens) (UniProt Q9HCP0); test: Selectivity interaction (KinomeScan (DiscoverX)) EUB0000045b CSNK1G1
Chain of Casein kinase I isoform gamma-1 (Homo sapiens) (Q9HCP0 whole entry, looked up, canonical isoform): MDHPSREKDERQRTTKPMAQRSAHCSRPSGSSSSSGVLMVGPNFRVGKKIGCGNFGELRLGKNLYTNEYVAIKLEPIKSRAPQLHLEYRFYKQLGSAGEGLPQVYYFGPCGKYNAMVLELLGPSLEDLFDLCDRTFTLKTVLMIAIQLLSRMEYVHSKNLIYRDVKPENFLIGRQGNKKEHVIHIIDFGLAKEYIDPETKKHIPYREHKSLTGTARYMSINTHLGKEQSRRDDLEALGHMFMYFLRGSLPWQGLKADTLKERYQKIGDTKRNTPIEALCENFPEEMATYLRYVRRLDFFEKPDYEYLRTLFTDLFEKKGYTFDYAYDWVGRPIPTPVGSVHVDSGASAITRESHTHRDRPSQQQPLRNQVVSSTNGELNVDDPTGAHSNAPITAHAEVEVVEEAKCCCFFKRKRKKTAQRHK

[5] = target: T1, Rhodopsin kinase GRK7 (Homo sapiens) (UniProt Q8WTQ7); test: Selectivity interaction (KinomeScan (DiscoverX)) EUB0000618a GRK7; details: at 10 µM
T1 sequence (whole entry): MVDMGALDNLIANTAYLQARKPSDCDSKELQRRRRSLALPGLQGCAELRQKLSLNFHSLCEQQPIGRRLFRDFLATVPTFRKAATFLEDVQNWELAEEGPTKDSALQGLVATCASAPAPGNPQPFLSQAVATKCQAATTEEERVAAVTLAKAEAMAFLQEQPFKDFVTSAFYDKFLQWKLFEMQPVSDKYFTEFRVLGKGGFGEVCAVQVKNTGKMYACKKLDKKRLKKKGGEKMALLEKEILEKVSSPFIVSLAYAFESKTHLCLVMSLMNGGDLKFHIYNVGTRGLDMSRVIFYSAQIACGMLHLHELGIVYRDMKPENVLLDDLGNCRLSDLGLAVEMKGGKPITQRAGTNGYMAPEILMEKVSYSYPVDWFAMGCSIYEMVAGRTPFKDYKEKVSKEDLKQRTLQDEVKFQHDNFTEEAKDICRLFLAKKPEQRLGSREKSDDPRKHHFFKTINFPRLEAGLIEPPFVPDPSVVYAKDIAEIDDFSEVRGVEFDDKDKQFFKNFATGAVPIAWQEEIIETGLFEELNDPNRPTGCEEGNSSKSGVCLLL

[6] = target: Receptor-interacting serine/threonine-protein kinase 3 (Homo sapiens) (UniProt Q9Y572); test: Selectivity interaction (ActivX KiNativ screen (ex vivo kinase selectivity in human PBMCs)) EUB0001619a RIPK3; type: cell-based; details: PBMC, at 1 µM
Chain of Receptor-interacting serine/threonine-protein kinase 3 (Homo sapiens) (Q9Y572 whole entry, looked up): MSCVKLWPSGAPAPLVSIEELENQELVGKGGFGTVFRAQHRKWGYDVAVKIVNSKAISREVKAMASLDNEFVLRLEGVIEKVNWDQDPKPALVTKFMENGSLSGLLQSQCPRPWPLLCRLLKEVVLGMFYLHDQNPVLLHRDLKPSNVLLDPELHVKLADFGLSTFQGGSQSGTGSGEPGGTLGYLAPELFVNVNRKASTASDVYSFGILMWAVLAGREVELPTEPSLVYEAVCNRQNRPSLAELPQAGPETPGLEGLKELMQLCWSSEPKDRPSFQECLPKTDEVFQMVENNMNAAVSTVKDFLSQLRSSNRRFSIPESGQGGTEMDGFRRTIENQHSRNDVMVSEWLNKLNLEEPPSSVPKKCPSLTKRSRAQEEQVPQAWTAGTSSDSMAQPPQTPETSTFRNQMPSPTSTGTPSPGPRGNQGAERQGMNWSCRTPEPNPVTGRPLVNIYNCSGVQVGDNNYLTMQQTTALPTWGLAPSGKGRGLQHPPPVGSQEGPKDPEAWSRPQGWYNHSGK

[7] = target: Calcium/calmodulin-dependent protein kinase kinase 2 (Homo sapiens) (UniProt Q96RR4); test: Selectivity interaction (ActivX KiNativ screen (ex vivo kinase selectivity in human PBMCs)) EUB0001619a CAMKK2; type: cell-based; details: PBMC, at 1 µM
Chain of Calcium/calmodulin-dependent protein kinase kinase 2 (Homo sapiens) (Q96RR4 2-588 limits assumed): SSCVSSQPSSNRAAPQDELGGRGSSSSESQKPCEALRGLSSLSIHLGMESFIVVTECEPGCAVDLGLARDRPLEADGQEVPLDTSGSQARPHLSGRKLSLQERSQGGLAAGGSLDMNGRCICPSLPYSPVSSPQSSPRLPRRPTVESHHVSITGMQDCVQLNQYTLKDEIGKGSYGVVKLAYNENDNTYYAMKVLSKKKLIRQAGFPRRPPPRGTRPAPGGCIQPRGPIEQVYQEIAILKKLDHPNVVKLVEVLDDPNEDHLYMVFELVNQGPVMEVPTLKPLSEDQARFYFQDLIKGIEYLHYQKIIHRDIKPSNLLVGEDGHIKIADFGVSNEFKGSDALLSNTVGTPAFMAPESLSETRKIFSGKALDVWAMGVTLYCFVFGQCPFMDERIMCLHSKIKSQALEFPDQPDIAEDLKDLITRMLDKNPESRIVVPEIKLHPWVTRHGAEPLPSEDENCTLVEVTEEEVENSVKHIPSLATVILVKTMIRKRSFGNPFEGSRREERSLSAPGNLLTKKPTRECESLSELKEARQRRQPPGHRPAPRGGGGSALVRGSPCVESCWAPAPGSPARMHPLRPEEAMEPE

[8] = target: Sodium-dependent noradrenaline transporter (Homo sapiens, UniProt P23975); test: Selectivity interaction (Panel of kinases, GPCRs, ion channels and transporters (enzymatic assay)) EUB0000266bCl SLC6A2
Chain of Sodium-dependent noradrenaline transporter (P23975 whole entry): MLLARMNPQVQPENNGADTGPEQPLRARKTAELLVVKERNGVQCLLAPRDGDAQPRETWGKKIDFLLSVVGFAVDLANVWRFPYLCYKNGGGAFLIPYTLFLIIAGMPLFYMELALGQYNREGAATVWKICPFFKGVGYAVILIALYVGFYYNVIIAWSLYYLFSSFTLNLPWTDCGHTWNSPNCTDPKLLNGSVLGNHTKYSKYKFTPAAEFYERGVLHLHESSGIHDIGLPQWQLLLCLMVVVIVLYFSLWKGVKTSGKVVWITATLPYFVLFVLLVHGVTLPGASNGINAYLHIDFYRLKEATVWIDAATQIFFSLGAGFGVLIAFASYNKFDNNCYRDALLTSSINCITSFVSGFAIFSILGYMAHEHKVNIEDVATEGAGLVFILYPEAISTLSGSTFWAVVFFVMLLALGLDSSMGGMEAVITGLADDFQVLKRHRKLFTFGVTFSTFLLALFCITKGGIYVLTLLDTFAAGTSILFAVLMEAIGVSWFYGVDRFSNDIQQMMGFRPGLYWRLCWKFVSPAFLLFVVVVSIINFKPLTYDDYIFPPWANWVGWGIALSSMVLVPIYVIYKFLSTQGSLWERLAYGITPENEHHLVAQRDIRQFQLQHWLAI

[9] = target: T2, Cyclin-dependent kinase 11A (Homo sapiens) (UniProt Q9UQ88); test: Selectivity interaction (KinomeScan (DiscoverX)) EUB0000607a CDK11A; details: at 10 µM
T2 sequence (whole entry): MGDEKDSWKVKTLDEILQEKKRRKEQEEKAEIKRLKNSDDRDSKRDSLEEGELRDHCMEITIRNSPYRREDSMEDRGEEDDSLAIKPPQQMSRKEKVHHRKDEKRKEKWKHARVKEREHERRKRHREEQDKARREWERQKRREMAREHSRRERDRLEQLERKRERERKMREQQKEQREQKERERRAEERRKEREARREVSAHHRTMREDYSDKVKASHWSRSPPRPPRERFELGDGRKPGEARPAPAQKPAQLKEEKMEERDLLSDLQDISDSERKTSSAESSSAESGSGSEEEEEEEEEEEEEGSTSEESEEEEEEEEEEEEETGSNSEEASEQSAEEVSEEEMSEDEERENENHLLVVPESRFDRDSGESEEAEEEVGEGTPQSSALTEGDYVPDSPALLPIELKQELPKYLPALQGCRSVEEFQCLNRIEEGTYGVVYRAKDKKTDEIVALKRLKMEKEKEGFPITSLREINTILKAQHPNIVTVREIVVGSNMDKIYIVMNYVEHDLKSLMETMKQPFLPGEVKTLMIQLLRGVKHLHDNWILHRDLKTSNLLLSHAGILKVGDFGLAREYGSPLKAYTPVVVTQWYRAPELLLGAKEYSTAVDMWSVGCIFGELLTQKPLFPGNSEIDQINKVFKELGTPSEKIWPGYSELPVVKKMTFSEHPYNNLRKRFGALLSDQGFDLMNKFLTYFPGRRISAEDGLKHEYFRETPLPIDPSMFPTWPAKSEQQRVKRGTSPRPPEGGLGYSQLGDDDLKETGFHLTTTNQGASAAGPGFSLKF

[10] = target: Activin receptor type-2B (Homo sapiens) (UniProt Q13705); test: Selectivity interaction (LanthaScreen Eu Kinase Binding Assay) EUB0001632a ACVR2B; details: at 10 µM
Chain of Activin receptor type-2B (Homo sapiens) (Q13705 whole entry): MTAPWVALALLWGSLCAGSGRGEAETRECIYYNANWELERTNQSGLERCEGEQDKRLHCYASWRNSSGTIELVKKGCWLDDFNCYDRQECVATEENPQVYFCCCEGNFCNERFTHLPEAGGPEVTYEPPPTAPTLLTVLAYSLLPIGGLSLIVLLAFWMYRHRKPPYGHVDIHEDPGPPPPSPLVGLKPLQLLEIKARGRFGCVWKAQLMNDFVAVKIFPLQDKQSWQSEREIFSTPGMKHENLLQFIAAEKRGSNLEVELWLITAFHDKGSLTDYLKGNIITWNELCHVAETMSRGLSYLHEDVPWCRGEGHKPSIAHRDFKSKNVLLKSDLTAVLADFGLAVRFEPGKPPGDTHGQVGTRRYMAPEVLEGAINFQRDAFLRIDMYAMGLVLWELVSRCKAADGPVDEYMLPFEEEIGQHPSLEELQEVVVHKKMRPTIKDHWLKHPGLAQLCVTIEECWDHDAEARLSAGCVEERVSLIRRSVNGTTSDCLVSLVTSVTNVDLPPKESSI

[11] = target: T3, Serine/threonine-protein kinase TAO3 (Homo sapiens) (UniProt Q9H2K8); test: Selectivity interaction (LanthaScreen Eu Kinase Binding Assay) EUB0001632a TAOK3; details: at 10 µM
T3 sequence (whole entry): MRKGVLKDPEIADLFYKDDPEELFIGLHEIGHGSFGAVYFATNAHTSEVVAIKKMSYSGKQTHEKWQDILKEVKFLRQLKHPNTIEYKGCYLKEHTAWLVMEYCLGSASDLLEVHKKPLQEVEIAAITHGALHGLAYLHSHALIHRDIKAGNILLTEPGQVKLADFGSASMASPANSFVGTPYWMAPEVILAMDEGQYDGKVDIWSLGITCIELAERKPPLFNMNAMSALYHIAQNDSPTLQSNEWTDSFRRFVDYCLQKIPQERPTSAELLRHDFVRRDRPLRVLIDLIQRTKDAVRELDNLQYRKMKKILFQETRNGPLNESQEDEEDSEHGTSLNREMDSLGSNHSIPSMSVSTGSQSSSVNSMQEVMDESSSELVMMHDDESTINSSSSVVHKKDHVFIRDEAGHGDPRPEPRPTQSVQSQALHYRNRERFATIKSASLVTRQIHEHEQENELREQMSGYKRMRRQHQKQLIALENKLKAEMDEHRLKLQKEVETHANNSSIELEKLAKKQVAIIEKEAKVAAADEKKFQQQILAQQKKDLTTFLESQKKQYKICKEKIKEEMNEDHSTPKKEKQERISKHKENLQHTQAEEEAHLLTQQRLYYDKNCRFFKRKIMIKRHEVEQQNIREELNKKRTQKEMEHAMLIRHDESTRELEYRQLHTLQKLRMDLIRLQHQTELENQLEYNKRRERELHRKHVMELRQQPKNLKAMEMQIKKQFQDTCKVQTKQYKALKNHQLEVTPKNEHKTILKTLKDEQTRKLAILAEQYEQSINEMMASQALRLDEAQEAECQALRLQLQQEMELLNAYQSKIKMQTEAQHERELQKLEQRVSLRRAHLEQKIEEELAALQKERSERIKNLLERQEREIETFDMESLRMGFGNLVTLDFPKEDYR

Chain of Tyrosine-protein kinase Lyn (P07948 2-512 limits assumed): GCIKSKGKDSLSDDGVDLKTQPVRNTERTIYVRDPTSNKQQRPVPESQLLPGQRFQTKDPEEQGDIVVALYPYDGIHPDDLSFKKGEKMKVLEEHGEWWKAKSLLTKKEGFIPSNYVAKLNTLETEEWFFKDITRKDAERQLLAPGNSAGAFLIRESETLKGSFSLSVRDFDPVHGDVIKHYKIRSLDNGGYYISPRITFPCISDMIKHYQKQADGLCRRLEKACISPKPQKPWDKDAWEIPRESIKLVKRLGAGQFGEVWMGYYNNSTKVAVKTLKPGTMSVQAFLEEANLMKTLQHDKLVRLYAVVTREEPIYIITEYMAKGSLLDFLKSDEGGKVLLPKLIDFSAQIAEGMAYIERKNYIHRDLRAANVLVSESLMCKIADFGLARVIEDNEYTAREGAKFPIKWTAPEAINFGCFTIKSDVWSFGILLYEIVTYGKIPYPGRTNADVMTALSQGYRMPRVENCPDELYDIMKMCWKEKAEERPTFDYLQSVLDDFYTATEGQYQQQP

Question: Which IC50 [1] does the source give for CCC(=O)N1CC[C@H](Nc2ncnc3c2CN(c2cnc(OC)c(C(F)(F)F)c2)CC3)C1 [LENIOLISIB] here?
Answer: 99 nM

Question: For CC[C@@H]1[C@H](F)C(=O)N[C@@H]1COc1nccc2cc(C(N)=O)c(OC)cc12 [ZIMLOVISERTIB], which % of inhibition [2] is on record?
Answer: 14.9%

Question: And the % of inhibition [3]?
Answer: -7%

Question: For C=CC(=O)Nc1cc(-n2c(=O)ccc3cnc4ccc(-c5ccc(NS(C)(=O)=O)cc5)cc4c32)ccc1C, which % of control ([4]; at 1 µM) is on record?
Answer: 100%

Question: What about the % of control ([4]; at 10 µM) of the same molecule?
Answer: 75%

Question: For O[C@H]1CC[C@H](Nc2ncc3nc(Nc4c(F)cc(F)cc4F)n([C@H]4CCOC4)c3n2)CC1, which % of control [5] is on record?
Answer: 86%

Question: Which % of inhibition [6] does the source give for N#Cc1cccc(-c2c[nH]c3ncnc(N4CCOCC4)c23)c1 here?
Answer: 8%

Question: What about the % of inhibition [7] of the same molecule?
Answer: 49%

Question: For CCn1c(-c2nc3cc(C(=O)N4CCCC(N)C4)ccc3n2C)cc2ccccc21 (configuration not stated), which pXC50 [8] is on record?
Answer: 4.4 M

Question: Which % of control [9] does the source give for CNC(=O)Nc1ccc(-c2nc(N3CC4CCC(C3)O4)c3cnn(C4CCC5(CC4)OCCO5)c3n2)cc1 here?
Answer: 97%

Question: Which results are given for Cn1cc(-n2cnc3c(NCc4nc5cc(Cl)c(Cl)cc5[nH]4)nc(N4CCOCC4)nc32)cn1?
Answer: % of inhibition [10]: -21.2%; % of inhibition [11]: 7.54%
